Measurements reported in the supplement of paper PMC10307832.

Experiments:
Experiment in all cases: relative viability (nuclei count vs DMSO), 5 days (fraction); higher = more cells survive
[1] = compound: Cn1cc(-c2cnn3c(N)c(Br)c([C@@H]4CCCNC4)nc23)cn1 + COc1cc2c(Oc3ccc(NC(=O)C4(C(=O)Nc5ccc(F)cc5)CC4)cc3F)ccnc2cc1OCCCN1CCOCC1 [Foretinib] (partner 0.25 µM)
In short: (§1)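 The day after seeding in 1536-well plates, lung cancer cell lines were treated by pin tool with a single drug, or with a fixed anchor-drug dose together with five library-drug doses (not always all listed) in √10 steps. After 5 days, a combined fix-and-stain solution (final 0.05% Triton X-100, 1% formaldehyde, 1 ug/ml Hoechst) was added. Nuclei counted on 4× images gave relative viability as treated counts over vehicle counts, reported as the median of duplicate plates.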

[2] = compound: Cn1cc(-c2cnn3c(N)c(Br)c([C@@H]4CCCNC4)nc23)cn1 + Cc1cc(Nc2cc(N3CCN(C)CC3)nc(Sc3ccc(NC(=O)C4CC4)cc3)n2)n[nH]1 [Tozasertib] (partner 0.1 µM)
In short: as §1

[3] = compound: Cn1cc(-c2cnn3c(N)c(Br)c([C@@H]4CCCNC4)nc23)cn1 + NC(=O)Nc1cc(-c2cccc(F)c2)sc1C(=O)N[C@H]1CCCNC1 [AZD7762] (partner 0.2 µM)
In short: as §1

[4] = compound: Cn1cc(-c2cnn3c(N)c(Br)c([C@@H]4CCCNC4)nc23)cn1 + CCNC(=O)c1noc(-c2cc(C(C)C)c(O)cc2O)c1-c1ccc(CN2CCOCC2)cc1 [Luminespib] (partner 0.01 µM)
In short: as §1

Row | Cell Line | relative viability ([1]; first compound 0.05 µM) | relative viability ([1]; first compound 0.1581 µM) | relative viability ([1]; first compound 0.5 µM) | relative viability ([1]; first compound 1.581 µM) | relative viability ([1]; first compound 5 µM) | relative viability ([2]; first compound 0.05 µM) | relative viability ([2]; first compound 0.1581 µM) | relative viability ([2]; first compound 0.5 µM) | relative viability ([2]; first compound 1.581 µM) | relative viability ([2]; first compound 5 µM) | relative viability ([3]; first compound 0.05 µM) | relative viability ([3]; first compound 0.1581 µM) | relative viability ([3]; first compound 0.5 µM) | relative viability ([3]; first compound 1.581 µM) | relative viability ([3]; first compound 5 µM) | relative viability ([4]; first compound 0.05 µM) | relative viability ([4]; first compound 0.1581 µM) | relative viability ([4]; first compound 0.5 µM) | relative viability ([4]; first compound 1.581 µM) | relative viability ([4]; first compound 5 µM)
1 | HCC-15 | 1.09 | 1.09 | 1.05 | 0.941 | 1 | 0.401 | 0.392 | 0.386 | 0.256 | 0.212 | 1.18 | 1.29 | 1.3 | 1.31 | 1.36 | 0.636 | 0.419 | 0.396 | 0.198 | 0.382
2 | HCC-827 | 1.09 | 1.11 | 1.06 | 1.02 | 1.02 | 0.426 | 0.392 | 0.439 | 0.516 | 0.394 | 0.183 | 0.188 | 0.193 | 0.211 | 0.17 | 0.551 | 0.843 | 0.485 | 0.674 | 0.332
3 | HOP-62 | 1.17 | 1.16 | 1.06 | 1 | 0.985 | 0.334 | 0.348 | 0.335 | 0.252 | 0.249 | 0.526 | 1.06 | 0.622 | 0.534 | 0.271 | 0.872 | 0.915 | 0.933 | 0.829 | 0.739
4 | LC-2-ad | 0.878 | 0.999 | 1.09 | 0.938 | 0.908 | 0.39 | 0.382 | 0.442 | 0.464 | 0.355 | 0.841 | 0.949 | 0.819 | 0.805 | 0.881 | 1.01 | 1.11 | 1.26 | 1.03 | 1.08
5 | LCLC-97TM1 | 0.862 | 1 | 0.93 | 0.909 | 0.956 | 0.202 | 0.286 | 0.188 | 0.269 | 0.194 | 0.296 | 0.367 | 0.264 | 0.217 | 0.222 | 0.874 | 0.844 | 0.743 | 0.654 | 0.777
6 | LCLC-103H | 0.72 | 0.848 | 0.746 | 0.674 | 0.657 | 0.543 | 0.57 | 0.469 | 0.364 | 0.313 | 0.834 | 0.914 | 0.728 | 0.738 | 0.685 | 1.05 | 1.02 | 0.895 | 0.699 | 0.816
7 | LK-2 | 1.18 | 1.27 | 0.887 | – | 0.901 | 0.196 | 0.17 | 0.162 | – | 0.161 | 0.303 | 0.408 | 0.33 | 0.315 | 0.209 | 0.213 | 0.206 | 0.182 | – | 0.169
8 | LOU-NH91 | 0.928 | 0.879 | 0.91 | 0.926 | 0.781 | 0.585 | 0.585 | 0.609 | 0.683 | 0.497 | 0.373 | 0.744 | 0.761 | 0.727 | 0.642 | 0.321 | 0.368 | 0.285 | 0.667 | 0.307
9 | LU99A | 0.805 | 0.768 | 0.821 | 0.706 | 0.716 | 0.271 | 0.243 | 0.258 | 0.243 | 0.193 | 0.371 | 0.392 | 0.304 | 0.264 | 0.224 | 0.31 | 0.202 | 0.248 | 0.162 | 0.223
10 | LXF-289 | 0.996 | 1.02 | 1 | 0.94 | 1.03 | 0.209 | 0.219 | 0.189 | 0.168 | 0.162 | 1.09 | 1.16 | 1.09 | 0.981 | 1.05 | 0.729 | 0.803 | 0.645 | 0.648 | 0.55
11 | NCI-H23 | 1.02 | 0.987 | 0.907 | 0.615 | 0.53 | 0.247 | 0.878 | 0.399 | 0.311 | 0.179 | 0.253 | 0.273 | 0.25 | 0.162 | 0.123 | 0.22 | 0.205 | 0.187 | 0.215 | 0.201
12 | NCI-H322M | 0.91 | 0.62 | 0.854 | 0.563 | 0.297 | 0.468 | 0.315 | 0.406 | 0.359 | 0.294 | 0.51 | 0.428 | 0.501 | 0.447 | 0.407 | 0.71 | 0.33 | 0.426 | 0.376 | 0.279
13 | NCI-H358 | 0.685 | 0.768 | 0.654 | 0.59 | 0.628 | 0.0994 | 0.103 | 0.0971 | 0.0967 | 0.117 | 0.417 | – | 0.447 | 0.38 | 0.36 | 0.546 | 0.281 | 0.437 | 0.261 | 0.152
14 | NCI-H441 | 0.99 | 1.38 | 1.13 | 0.957 | 0.725 | 0.922 | 0.777 | 0.651 | 0.675 | 0.657 | 1.27 | 1.32 | 1.05 | 1.1 | 0.956 | 0.373 | 0.348 | 0.31 | 0.254 | 0.302
15 | NCI-H460 | 0.957 | 1.08 | 1.03 | 0.914 | 0.666 | 0.421 | 0.482 | 0.537 | 0.475 | 0.222 | 0.496 | 0.579 | 0.603 | 0.757 | 0.519 | 0.0336 | 0.0269 | 0.0266 | 0.0285 | 0.0325
16 | NCI-H596 | 0.871 | 0.797 | 0.778 | 0.83 | 0.674 | 1.02 | 1.08 | 0.719 | 0.857 | 0.562 | 1.13 | 1.06 | 1.06 | 1.01 | 1.1 | 0.992 | 0.971 | 0.965 | 0.894 | 0.716
